From BindingDB's records for doi:10.1002/bip.20588 (University of California Davis, 2006) come the findings set out here.

The structures appear in SMILES notation. *1 amine or outer side, *2 acyl side, *3 side chain or, on linkers, in order; H or OH if unused. Where a SMILES comes first, the peptide text is derived from it. [ ]: non-standard residue; d: D form. The star is where a group is joined. ξ: configuration not given here. X1 = O=C(Cc1ccc(N[*:1])cc1)[*:2]; Ile(3ξ) = CCC(C)[C@H](N)C(=O)O; NH(2-Me-phenyl) = Cc1ccccc1N*; β3hD = NC(CC(=O)O)CC(=O)O; Nle = CCCC[C@H](N)C(=O)O; Abu = CC[C@H](N)C(=O)O; Dap = NC[C@H](N)C(=O)O; Ac3c = NC1(C(=O)O)CC1; Aib = CC(C)(N)C(=O)O; CO = O=C([*:1])[*:2]; Butyryl = CCCC(=O)*; X10 = Brc1ccccc1N*

The target of this assay is Integrin alpha-4/beta-1 (Homo sapiens, UniProt P05556+P13612, T112H). Kind of assay: Jurkat Cell Adhesion Inhibition Assay. The method, then:
Binding affinities (IC50) of the ligands were studied in a Jurkat cell adhesion assay by inhibiting the alpha-4/beta-1 mediated cell adhesion to CS-1 peptides. The 96-well plates were coated with neutravidin, followed by biotinconjugated CS-1 peptides. Jurkat cells with series dilutions of tested ligands in binding buffer were added and allowed to bind for 30 min. Bound cells were recorded using a 96-well plate reader at 570 nm. IC50 values were calculated from inhibition curves resulting from the concentration-dependent inhibition

A word on the IC50: it is the concentration that inhibits the measured activity by half. In turn, `CCCC[C@H](NC(=O)Cc1ccc(NC(=O)Nc2ccccc2C)cc1)C(=O)N[C@@H](CC(=O)O)CC(=O)N[C@H](C(=O)N1CCC[C@H]1C(N)=O)C(C)CC` (stereo partly drawn) [(3R)-4-{[(2S,3R)-1-[(2S)-2-carbamoylpyrrolidin-1-yl]-3-methyl-1-oxopentan-2-yl]carbamoyl}-3-[(2S)-2-[1-(4-{[(2-methylphenyl)carbamoyl]amino}phenyl)acetamido]hexanamido]butanoic acid] ({NH(2-Me-phenyl)-CO}-[X1][Nle][β3hD][Ile(3ξ)]P-NH2) showed an IC50 of 4 nM.

`CCCC[C@H](NC(=O)Cc1ccc(NC(=O)Nc2ccccc2C)cc1)C(=O)N[C@@H](CC(=O)O)C(=O)NC(C)(C)C(=O)N1CCC[C@H]1C(N)=O` [(3S)-3-({1-[(2S)-2-carbamoylpyrrolidin-1-yl]-2-methyl-1-oxopropan-2-yl}carbamoyl)-3-[(2S)-2-[1-(4-{[(2-methylphenyl)carbamoyl]amino}phenyl)acetamido]hexanamido]propanoic acid] ({NH(2-Me-phenyl)-CO}-[X1][Nle]D[Aib]P-NH2) came in with an IC50 of 13 nM.

Molecule `CCCC[C@H](NC(=O)Cc1ccc(NC(=O)Nc2ccccc2C)cc1)C(=O)N[C@@H](CC(=O)O)C(=O)NC1(C(=O)N2CCC[C@H]2C(N)=O)CC1` [(3S)-3-[(1-{[(2S)-2-carbamoylpyrrolidin-1-yl]carbonyl}cyclopropyl)carbamoyl]-3-[(2S)-2-[1-(4-{[(2-methylphenyl)carbamoyl]amino}phenyl)acetamido]hexanamido]propanoic acid] ({NH(2-Me-phenyl)-CO}-[X1][Nle]D[Ac3c]P-NH2) returned an IC50 of 9.2 nM. The IC50 values of the last two molecules are within 1.5-fold of each other.

The molecule `CCCC[C@H](NC(=O)Cc1ccc(NC(=O)Nc2ccccc2Br)cc1)C(=O)N[C@@H](CC(=O)O)C(=O)N[C@H](C(=O)N1CCC[C@H]1C(N)=O)C(C)CC` (stereo partly drawn) [(3S)-3-[(2S)-2-[1-(4-{[(2-bromophenyl)carbamoyl]amino}phenyl)acetamido]hexanamido]-3-{[(2S,3S)-1-[(2S)-2-carbamoylpyrrolidin-1-yl]-3-methyl-1-oxopentan-2-yl]carbamoyl}propanoic acid] ({X10-CO}-[X1][Nle]D[Ile(3ξ)]P-NH2) returned an IC50 of 4.8 nM.

As to `CCCC(=O)NC[C@H](NC(=O)Cc1ccc(NC(=O)Nc2ccccc2C)cc1)C(=O)N[C@@H](CC(=O)O)C(=O)N[C@H](C(=O)N1CCC[C@H]1C(N)=O)C(C)CC` (stereo partly drawn) [(3S)-3-[(2S)-3-butanamido-2-[1-(4-{[(2-methylphenyl)carbamoyl]amino}phenyl)acetamido]propanamido]-3-{[(2S,3S)-1-[(2S)-2-carbamoylpyrrolidin-1-yl]-3-methyl-1-oxopentan-2-yl]carbamoyl}propanoic acid] ({NH(2-Me-phenyl)-CO}-[X1][Dap](Butyryl)D[Ile(3ξ)]P-NH2), inhibition was half-maximal at 138 nM (IC50).

In turn, `CCCC[C@H](NC(=O)Cc1ccc(NC(=O)Nc2ccccc2C)cc1)C(=O)N[C@@H](CC(=O)O)C(=O)N[C@H](C(=O)NC1CCCC1C(N)=O)C(C)CC` (stereo partly drawn) [(3S)-3-{[(1S,2S)-1-[(2-carbamoylcyclopentyl)carbamoyl]-2-methylbutyl]carbamoyl}-3-[(2S)-2-[1-(4-{[(2-methylphenyl)carbamoyl]amino}phenyl)acetamido]hexanamido]propanoic acid] displayed a half-inhibitory concentration (IC50) (pH 7.5, 22 °C) of 3.4 nM.

`CCCC[C@H](NC(=O)Cc1ccc(NC(=O)Nc2ccccc2C)cc1)C(=O)N[C@@H](CC(=O)O)C(=O)N[C@H](C(=O)Nc1cccc(C(N)=O)c1)C(C)CC` (stereo partly drawn) [(3S)-3-{[(1S,2S)-1-[(3-carbamoylphenyl)carbamoyl]-2-methylbutyl]carbamoyl}-3-[(2S)-2-[1-(4-{[(2-methylphenyl)carbamoyl]amino}phenyl)acetamido]hexanamido]propanoic acid] gave an IC50 (pH 7.5, 22 °C) of 3.3 nM.

Molecule `CCCC[C@H](NC(=O)Cc1ccc(NC(=O)Nc2ccccc2C)cc1)C(=O)N[C@@H](CC(=O)O)C(=O)N[C@H](C(=O)NC1CC[C@@H]2SC[C@@H](C(N)=O)N2C1=O)[C@@H](C)CC` (stereo partly drawn) [(3S)-3-{[(1S,2S)-1-{[(3R,8aS)-3-carbamoyl-5-oxo-hexahydro-2H-pyrido[2,1-b][1,3]thiazol-6-yl]carbamoyl}-2-methylbutyl]carbamoyl}-3-[(2S)-2-[1-(4-{[(2-methylphenyl)carbamoyl]amino}phenyl)acetamido]hexanamido]propanoic acid] came in with a concentration for half-maximal inhibition (IC50) (pH 7.5, 22 °C) of 3.4 nM.

Turning to `CCCC[C@H](NC(=O)Cc1ccc(NC(=O)Nc2ccccc2C)cc1)C(=O)N[C@@H](CC(=O)O)C(=O)N[C@@H](CC)C(=O)N1CCC[C@H]1C(N)=O` [(3S)-3-{[(2S)-1-[(2S)-2-carbamoylpyrrolidin-1-yl]-1-oxobutan-2-yl]carbamoyl}-3-[(2S)-2-[1-(4-{[(2-methylphenyl)carbamoyl]amino}phenyl)acetamido]hexanamido]propanoic acid] ({NH(2-Me-phenyl)-CO}-[X1][Nle]D[Abu]P-NH2), half-maximal inhibition (IC50) required 2.9 nM.

Consider `CCCC[C@H](NC(=O)Cc1ccc(NC(=O)Nc2ccccc2C)cc1)C(=O)N[C@@H](CC(=O)O)C(=O)N[C@H](C(=O)N1CCC[C@H]1C(N)=O)C(C)C` [(3S)-3-{[(2S)-1-[(2S)-2-carbamoylpyrrolidin-1-yl]-3-methyl-1-oxobutan-2-yl]carbamoyl}-3-[(2S)-2-[1-(4-{[(2-methylphenyl)carbamoyl]amino}phenyl)acetamido]hexanamido]propanoic acid] ({NH(2-Me-phenyl)-CO}-[X1][Nle]DVP-NH2), for which inhibition was half-maximal at 0.6 nM (IC50). Compared with the last molecule, the IC50 is about 4.8-fold lower.

Take `CCCC[C@H](NC(=O)Cc1ccc(NC(=O)Nc2ccccc2C)cc1)C(=O)N[C@@H](CC(=O)O)C(=O)N[C@H](C(=O)N1CCCC(C(N)=O)C1)C(C)CC` (stereo partly drawn) [(3S)-3-{[(2S,3S)-1-(3-carbamoylpiperidin-1-yl)-3-methyl-1-oxopentan-2-yl]carbamoyl}-3-[(2S)-2-[1-(4-{[(2-methylphenyl)carbamoyl]amino}phenyl)acetamido]hexanamido]propanoic acid]: the IC50 (pH 7.5, 22 °C) was 4 nM.

Consider `CCCC[C@H](NC(=O)Cc1ccc(NC(=O)Nc2ccccc2C)cc1)C(=O)N[C@@H](CC(=O)O)C(=O)N[C@H](C(=O)N1CCC(C(N)=O)CC1)C(C)CC` (stereo partly drawn) [(3S)-3-{[(2S,3S)-1-(4-carbamoylpiperidin-1-yl)-3-methyl-1-oxopentan-2-yl]carbamoyl}-3-[(2S)-2-[1-(4-{[(2-methylphenyl)carbamoyl]amino}phenyl)acetamido]hexanamido]propanoic acid], for which, under “pH 7.5, 22 °C”, the half-maximal inhibitory concentration (IC50) was determined as 3.3 nM. The IC50 values of the last two molecules are within 1.5-fold of each other.

Turning to `CCCC[C@H](NC(=O)Cc1ccc(NC(=O)Nc2ccccc2C)cc1)C(=O)N[C@@H](CC(=O)O)C(=O)N[C@H](C(=O)N1CCC2(CC1)C(=O)N(CC(N)=O)CN2c1ccccc1)C(C)CC` (stereo partly drawn) [(3S)-3-{[(2S,3S)-1-[3-(carbamoylmethyl)-4-oxo-1-phenyl-1,3,8-triazaspiro[4.5]decan-8-yl]-3-methyl-1-oxopentan-2-yl]carbamoyl}-3-[(2S)-2-[1-(4-{[(2-methylphenyl)carbamoyl]amino}phenyl)acetamido]hexanamido]propanoic acid], inhibition (pH 7.5, 22 °C) was half-maximal at 29 nM (IC50).

`CCCC[C@H](NC(=O)Cc1ccc(NC(=O)Nc2ccccc2C)cc1)C(=O)N[C@@H](CC(=O)O)C(=O)N[C@H](C(=O)N1CCCC[C@@H]1C(N)=O)C(C)CC` (stereo partly drawn) [(3S)-3-{[(2S,3S)-1-[(2R)-2-carbamoylpiperidin-1-yl]-3-methyl-1-oxopentan-2-yl]carbamoyl}-3-[(2S)-2-[1-(4-{[(2-methylphenyl)carbamoyl]amino}phenyl)acetamido]hexanamido]propanoic acid] came in with a concentration for half-maximal inhibition (IC50) (pH 7.5, 22 °C) of 3 nM. This IC50 is about 9.7-fold lower than that of the molecule before.
